In publication PMC11722285, “Exploring the Potential of Malvidin and Echiodinin as Probable Antileishmanial Agents Through In Silico Analysis and In Vitro Efficacy” (Molecules, 2025):
Like-named read-outs stand apart in the source and are kept apart here.

Tests used:
Format in all cases: cell-based
[1] = tested on: L. infantum stationary promastigotes; test: In vitro antileishmanial activity, stationary promastigotes (MTT)
Experimental: (§1) L. amazonensis (IFLA/BR/1967/PH-8), L. braziliensis (MHOM/BR/1975/M2903), and L. infantum (MHOM/BR/1970/BH46) were used as parasites. Stationary promastigotes were grown at a 24 °C in complete Schneider’s medium (Sigma-Aldrich, St. Louis, MO, USA), which was composed of medium plus 20% (v/v) heat-inactivated fetal bovine serum (FBS; Sigma-Aldrich, USA) and 20 mM L-glutamine with a pH of 7.4 [139]. To obtain the axenic amastigotes, 10^9 stationary promastigotes were washed three times in sterile phosphate-buffered saline (PBS 1X and incubated in 5 mL FBS for 48 h (L. amazonensis and L. braziliensis) and 72 h (L. infantum), respectively, at 37 °C. Parasites were washed in cold PBS 1x, and their morphology was evaluated after staining using the Giemsa method in an optical microscope, as previously described.
(§2) AmpB (0 to 10.8 µM; Sigma-Aldrich, USA) was used as control. Cell viability was assessed through 3-(4.5-dimethylthiazol-2-yl)-2.5-diphenyl tetrazolium bromide (Sigma-Aldrich, USA) method. Optical density (OD) values were measured in a microplate spectrophotometer (Molecular Devices, Spectra Max Plus, San Jose, CA, USA) at 570 nm. IC50 values were calculated by sigmoidal regression of dose–response curves in Microsoft Excel software (version 10.0). Two-tailed Student’s t-tests (p < 0.05) were used to compare IC50 values between malvidin and echioidinin, assessing significant differences in inhibitory activity.

[2] = tested on: L. braziliensis stationary promastigotes; test: as above
Experimental: as §1, §2

[3] = tested on: L. amazonensis stationary promastigotes; test: as above; conditions: for IC50: 48 h, stationary promastigotes, mean ± SD, read-out: IC50 (µM) Stationary Promastigotes L. amazonensis
Experimental: as §1, §2

O+ human red blood cells = test: Hemolytic activity; conditions: human, 1 h
Experimental: Cytotoxicity was evaluated ex vivo in murine macrophages and human red blood cells, for which concentrations inhibiting 50% of macrophages (CC50) and red blood cells (RBC50) were determined. Briefly, murine cells (5 × 10^5) or a 5% human red blood cells suspension were incubated in the presence of malvidin (0 to 301.84 µM) or echioidinin (0 to 356.76 µM) AmpB (0 to 10.82 µM) was used as control. Cells were incubated in RPMI 1640 medium for 48 h (murine macrophages) or 1 h (red blood cells) at 37 °C in 5% CO2. Macrophage viability was assessed using the MTT method. The red blood cell suspension was centrifuged at 1000× g for 10 min at 4 °C, after which the percentage of cell lysis was evaluated spectrophotometrically at 570 nm. The hemolysis was determined by replacing the natural products with an equal volume of phosphate-buffered saline with a pH of 7.4 (PBS—negative control) or distilled water (positive control). CC50 and RBC50 values were calculated by sigmoidal regression of dose–response curves in Microsoft Excel software (version 10.0). SI was calculated as the ratio between CC50 and IC50 values.

[4] = tested on: L. braziliensis axenic amastigotes; test: In vitro antileishmanial activity, axenic amastigotes (MTT)
Experimental: as §1, §2

[5] = tested on: L. amazonensis axenic amastigotes; test: as above; conditions: for IC50: 48 h, axenic amastigotes, mean ± SD, read-out: IC50 (µM) Axenic amastigotes L. amazonensis
Experimental: as §1, §2

[6] = tested on: L. infantum axenic amastigotes; test: as above
Experimental: as §1, §2

[7] = tested on: L. amazonensis-infected murine macrophages; test: Treatment of infected macrophages; conditions: 48 h
Experimental: (§3) To evaluate the efficacy of malvidin or echioidinin for treating infected macrophages, murine cells (5 × 10^5) were plated on round glass coverslips in 24-well plates in RPMI 1640 medium supplemented with 20% (v/v) FBS and 20 mM L-glutamine at a pH of 7.4 and incubated for 24 h at 37 °C in 5% CO2. Stationary promastigotes were added to the wells at a ratio of 10 parasites per macrophage, and cultures were incubated further for 48 h at 37 °C for 5% CO2. Free parasites were removed by extensive washing with RPMI 1640 medium, and infected macrophages were treated with malvidin (30.18, 60.37, and 120.74 µM), echioidinin (35.18, 70.36, and 140.72 µM), or AmpB (2.70 and 5.41 µM) for 48 h at […] in 5% CO2. After fixation with 4% paraformaldehyde, cells were washed and stained with Giemsa, and the infection percentage, the number of amastigotes per infected macrophage, and the reduction in the infection percentage were determined by counting 200 cells in triplicate, using an optical microscope.

[8] = tested on: L. braziliensis-infected murine macrophages; test: Treatment of infected macrophages; conditions: 48 h
Experimental: as §3

[9] = tested on: L. infantum-infected murine macrophages; test: Treatment of infected macrophages; conditions: 48 h
Experimental: as §3

[10] = ratio between CC50 (macrophages) and IC50

IC50 ([1]; Leishmania infantum, stationary promastigotes, 48 h, mean ± SD, read-out: IC50 (µM) Stationary Promastigotes L. infantum): 0.06 ± 0.01 µM | IC50 ([2]; Leishmania braziliensis, stationary promastigotes, 48 h, mean ± SD, read-out: IC50 (µM) Stationary Promastigotes L. braziliensis): 0.09 ± 0.03 µM | IC50 ([3]; Leishmania amazonensis): 0.06 ± 0.01 µM | IC50 [3]: 0.08 ± 0.02 µM | IC50 ([4]; Leishmania braziliensis, axenic amastigotes, 48 h, mean ± SD, read-out: IC50 (µM) Axenic amastigotes L. braziliensis): 0.1 ± 0.03 µM | IC50 ([5]; Leishmania amazonensis): 0.1 ± 0.03 µM | IC50 [5]: 0.09 ± 0.02 µM | IC50 ([6]; Leishmania infantum, axenic amastigotes, 48 h, mean ± SD, read-out: IC50 (µM) Axenic amastigotes L. infantum): 0.08 ± 0.02 µM
SMILES: C[C@@H]1[C@H](O)[C@@H](C)/C=C/C=C/C=C/C=C/C=C/C=C/C=C/[C@H](O[C@@H]2O[C@H](C)[C@@H](O)[C@H](N)[C@@H]2O)C[C@@H]2O[C@](O)(C[C@@H](O)C[C@@H](O)[C@H](O)CC[C@@H](O)C[C@@H](O)CC(=O)O[C@H]1C)C[C@H](O)[C@H]2C(=O)O [AmpB, amphotericin B, reference compound]
Selectivity Index (SI) Stationary Promastigotes L. infantum [1, 10]: 14.70 | Selectivity Index (SI) Stationary Promastigotes L. braziliensis [2, 10]: 11.00 | Selectivity Index (SI) Stationary Promastigotes L. amazonensis [3, 10]: 12.60 | RBC50 (O+ human red blood cells): 14.28 ± 1 µM | Selectivity Index (SI) Axenic amastigotes L. braziliensis [4, 10]: 9.80 | Selectivity Index (SI) Axenic amastigotes L. amazonensis [5, 10]: 11.00 | Selectivity Index (SI) Axenic amastigotes L. infantum [6, 10]: 12.60 | Infection After Treatment (%) ([7]; 2.71 µM): 34.30% | Infectiveness Reduction (%) ([7]; 2.71 µM): 62.84% | Number of Amastigotes per Macrophage ([7]; 2.71 µM): 2.60 | Infection After Treatment (%) ([7]; 5.41 µM): 24.20% | Infectiveness Reduction (%) ([7]; 5.41 µM): 73.78% | Number of Amastigotes per Macrophage ([7]; 5.41 µM): 2.80 | Infection After Treatment (%) ([8]; 2.71 µM): 24.40% | Infectiveness Reduction (%) ([8]; 2.71 µM): 64.48% | Number of Amastigotes per Macrophage ([8]; 2.71 µM): 2.60 | Infection After Treatment (%) ([8]; 5.41 µM): 16.50% | Infectiveness Reduction (%) ([8]; 5.41 µM): 75.98% | Number of Amastigotes per Macrophage ([8]; 5.41 µM): 2.40 | Infection After Treatment (%) ([9]; 2.71 µM): 28.70% | Infectiveness Reduction (%) ([9]; 2.71 µM): 61.48% | Number of Amastigotes per Macrophage ([9]; 2.71 µM): 3.00 | Infection After Treatment (%) ([9]; 5.41 µM): 19.80% | Infectiveness Reduction (%) ([9]; 5.41 µM): 73.42% | Number of Amastigotes per Macrophage ([9]; 5.41 µM): 2.50
